Results as given in paper PMC8772941 (Biomedicines, 2021).
Like-named read-outs stand apart in the source and are kept apart here. Marks after values point to notes of the source that are not given here.

How the values were obtained:
WT D2R [1] = test system: WT D2R; set-up: method as in PMID 29325769; settings: log values from pERK assay; cited from earlier work
D2R V91A = test system: D2R V91A; set-up: method as in PMID 29325769; settings: log values from pERK assay; cited from earlier work
D2R L94A = test system: D2R L94A; set-up: method as in PMID 29325769; settings: log values from pERK assay; cited from earlier work
D2R E95A = test system: D2R E95A; set-up: method as in PMID 29325769; settings: log values from pERK assay; cited from earlier work
D2R S194A = test system: D2R S194A; set-up: method as in PMID 29325769; settings: log values from pERK assay; cited from earlier work
WT D2R [2] = test system: WT D2R; set-up: method as in PMID 29325769; settings: log value from radioligand binding; cited from earlier work
D2R S193A = test system: D2R S193A; set-up: method as in PMID 29325769; settings: log value from radioligand binding; cited from earlier work
D2R = settings: in the presence of µM concentrations of DA; pre-incubation protocols; cited from earlier work
GIRK1/4 = target: T1, GIRK1/4 (Homo sapiens, UniProt P48544+P48549); experiment: Control: direct inhibition of GIRK currents in oocytes expressing GIRK1/4 in the absence of the D2R
T1 sequence (P48549 1-501): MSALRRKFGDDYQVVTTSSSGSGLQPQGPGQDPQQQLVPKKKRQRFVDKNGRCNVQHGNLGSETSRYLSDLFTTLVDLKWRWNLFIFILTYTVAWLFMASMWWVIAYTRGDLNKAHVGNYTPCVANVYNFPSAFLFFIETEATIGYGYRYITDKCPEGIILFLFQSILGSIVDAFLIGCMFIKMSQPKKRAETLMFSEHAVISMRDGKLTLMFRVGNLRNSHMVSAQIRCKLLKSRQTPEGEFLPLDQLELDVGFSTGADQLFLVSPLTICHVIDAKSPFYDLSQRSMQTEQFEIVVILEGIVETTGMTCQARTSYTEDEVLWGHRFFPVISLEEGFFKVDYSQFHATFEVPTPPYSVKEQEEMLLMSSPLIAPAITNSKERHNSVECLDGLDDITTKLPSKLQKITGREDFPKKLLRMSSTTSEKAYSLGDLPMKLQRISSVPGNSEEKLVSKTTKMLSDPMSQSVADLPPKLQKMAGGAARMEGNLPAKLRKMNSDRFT
T1 sequence (P48544 1-419): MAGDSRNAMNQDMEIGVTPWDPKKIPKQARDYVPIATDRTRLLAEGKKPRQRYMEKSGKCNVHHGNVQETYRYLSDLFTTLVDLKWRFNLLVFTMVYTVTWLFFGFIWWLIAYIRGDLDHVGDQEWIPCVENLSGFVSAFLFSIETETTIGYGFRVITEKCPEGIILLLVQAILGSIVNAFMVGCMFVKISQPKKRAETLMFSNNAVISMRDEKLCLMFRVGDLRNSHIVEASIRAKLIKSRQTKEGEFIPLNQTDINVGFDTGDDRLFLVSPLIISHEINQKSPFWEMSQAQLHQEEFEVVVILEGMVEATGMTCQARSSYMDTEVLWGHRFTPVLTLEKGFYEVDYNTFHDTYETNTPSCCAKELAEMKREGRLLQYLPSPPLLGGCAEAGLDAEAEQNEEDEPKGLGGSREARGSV
Method: Plasmids were linearized using the appropriate restriction enzymes (D2R, RGS4; XhoI and GIRK1/GIRK4; NotI), followed by in vitro transcription using the T7 mMessage mMachine kit (Ambion, Austin, TX, USA). cRNA concentration and purity were determined by spectrophotometry.
Following RNA injection and 6 days of incubation at 12 °C, electrophysiological experiments were performed on the oocytes using the parallel eight-channel, semi-automated, two-electrode voltage-clamp OpusXpress 6000A (Molecular Devices, San José, CA) [13, 14]. Continuous perfusion, mediated by Minipuls 3 peristaltic pumps (Gilson, Middleton, WI, USA), was maintained at 0.5 mL/min. Data were acquired at a membrane potential of −80 mV and sampled at 156 Hz using OpusXpress 1.10.42 (Molecular Devices) software. To increase the inward-rectifier potassium channel current at negative potentials, a high potassium concentration extracellular perfusion fluid was used (64 mM NaCl, 25 mM KCl, 0.8 mM MgCl2, 0.4 mM CaCl2, 15 mM HEPES, 1 mM ascorbic acid, adjusted to pH 7.4 with NaOH), yielding a K^+ reversal potential of about −40 mV.

**Q.** What does the source list for `N#Cc1ccc2c(c1)CN(CC[C@H]1CC[C@H](NC(=O)c3cc4ccccc4[nH]3)CC1)CC2` [SB269,652, N-((trans)-4-(2-(7-cyano-3,4-dihydroisoquinolin-2(1H)-yl)ethyl)cyclohexyl)-1H-indole-2-carboxamide]?
**A.** Negative Cooperativity of SB269,652 Interaction with DA (WT D2R [1]): 1.23 ± 0.14; Negative Cooperativity of SB269,652 Interaction with DA (D2R V91A): ↓ 0.48 ± 0.16; Negative Cooperativity of SB269,652 Interaction with DA (D2R L94A): ↓ 0.70 ± 0.08; Negative Cooperativity of SB269,652 Interaction with DA (D2R E95A): ↓ 0.32 ± 0.14; Negative Cooperativity of SB269,652 Interaction with DA (D2R S194A): ↓ 0.52 ± 0.09; Negative Cooperativity of SB269,652 Interaction with DA (WT D2R [2]): 0.54 ± 0.11; Negative Cooperativity of SB269,652 Interaction with DA (D2R S193A): ↑ (1.47 ± 0.15 *) ^b; SB269,652 IC50 at the D2R in previous reports (D2R): high nM range; Ligand-mediated direct inhibition of GIRK currents (>10%) (GIRK1/4): not observed
